Results as given in US11673866B2, “Estrogen receptor beta ligands for the prevention and treatment of multiple sclerosis (MS) and other demyelinating, inflammatory and neurodegenerative diseases” (The Board of Trustees of the University of Illinois, priority 2018, dated 2023).

Experiments:
[1] = tested on: primary OPCs/OLs; test: Primary OPC/OL differentiation and survival (O4, MOG, DAPI staining); assay type: cell-based, mouse; conditions: for number of MOG+ OLs: vs vehicle-treated cells, FIG. 12B
Description: FIG. 12A is representative images of primary OPCs/OLs from wells containing differentiating media in the presence of different analogues. OLs were immunostained with an antigen on the surface of oligodendrocyte progenitors, O4, a marker of mature oligodendrocytes, myelin oligodendrocyte glycoprotein, MOG and co-stained with nuclear stain DAPI.
FIG. 12B and FIG. 12C show quantification of the effects of treatment on the number of MOG+ OLs and the number of total cells (DAPI), respectively. […] There were 3 wells/treatment group. n=3 independent experiments were performed. One-Way ANOVA with Dunnett's multiple comparisons test.
The effect on cell differentiation and survival of estrogen receptor § (ERP) ligand IndCl and analogs were investigated. Some estrogen receptor § (ERP) ligands increase primary mouse oligodendrocyte differentiation (FIGS. 12A-12C).

[2] = biological target: T1, ERα (Homo sapiens, UniProt P03372); test: Relative binding affinity (RBA) to estrogen receptor alpha, radiometric measurement; conditions: relative value to 100% for E2 by radiometric measurement
T1 sequence (P03372 1-595): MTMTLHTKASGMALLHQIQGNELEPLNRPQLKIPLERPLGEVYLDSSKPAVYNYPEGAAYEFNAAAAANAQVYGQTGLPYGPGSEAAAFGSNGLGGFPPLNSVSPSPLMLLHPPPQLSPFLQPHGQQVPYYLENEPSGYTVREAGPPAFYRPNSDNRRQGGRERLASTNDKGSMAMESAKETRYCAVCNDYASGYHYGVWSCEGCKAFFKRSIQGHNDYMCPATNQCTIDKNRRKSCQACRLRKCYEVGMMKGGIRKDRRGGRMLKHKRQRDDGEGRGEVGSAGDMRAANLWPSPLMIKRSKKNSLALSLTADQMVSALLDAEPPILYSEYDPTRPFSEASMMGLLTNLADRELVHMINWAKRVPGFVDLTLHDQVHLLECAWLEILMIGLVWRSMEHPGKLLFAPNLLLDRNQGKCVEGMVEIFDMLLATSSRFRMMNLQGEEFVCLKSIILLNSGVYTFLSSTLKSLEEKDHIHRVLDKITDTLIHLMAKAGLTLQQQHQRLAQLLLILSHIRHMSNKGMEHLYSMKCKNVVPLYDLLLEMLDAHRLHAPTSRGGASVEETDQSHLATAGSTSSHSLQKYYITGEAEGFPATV

[3] = biological target: ERβ (Homo sapiens, UniProt Q92731); test: Relative binding affinity (RBA) to estrogen receptor beta, radiometric measurement; conditions: for β/α Ratio: ratio of RBA ERβ to RBA ERα; for RBA ERβ: relative value to 100% for E2 by radiometric measurement
[4] = tested on: primary oligodendrocyte and oligodendrocyte precursor cells (OL/OPCs); test: Primary OPC culture differentiation (MBP immunostaining, DAPI); assay type: cell-based, mouse; design: key to %MBP+/DAPI: *: The level of production of myelin basic protein (MBP); ---: reduction of MBP; conditions: level of production of myelin basic protein in primary OPC/OL cultures
Procedure: Primary OPC Cultures: Primary OPCs, isolated from postnatal day P1 C57BL/6 male and female mouse cortices as described previously, were treated with 10 nM ligands in differentiating medium for 3 days (Tiwari-Woodruff et al., 2001; Tiwari-Woodruff et al., 2006). Primary OPC were cultured into 8-well chamber slides (three wells per condition, 2.5×10^5 cells/well) for three days to attach and […] in differentiating media (consisting of DMEM-F12 with triiodothyronine- and thyroxine-containing Sato as well as penicillin, streptomycin, insulin, N-acetyl-L-cysteine, forskolin, ciliary neurotrophic factor, neurotrophin-3, and platelet-derived growth factor receptor α (Tiwari-Woodruff et al., 2001)). A positive control (IndCl), a negative control (Vehicle consisting of the media+EtOH mixture used to dissolve IndCl), and a normal control (differentiating media alone) were used for comparison. At the end of the treatment period, cells were fixed, stained by immunocytochemistry (primary antibody polyclonal chicken myelin basic protein (MBP, Millipore AB9348), shown in green and co-stained with nuclear stain—DAPI shown in blue), and imaged with an Olympus BX61 confocal microscope (Olympus America Inc., Center Valley, Pa.) at 10× magnification (3 images per well). Cells were counted using the ImageJ multipoint tool, and counts were then divided by the image area (mm^2). Average cell density for each condition was then divided by the normal condition cell density. Analysis of OL differentiation consisted of counting the number of MBP+ cells and process extensions that were longer than the respective cell-body diameter and tracking the number of highly branched MBP+ cells (with three or more processes) (Monnerie et al., 2017). Statistics were performed using GraphPad Prism 6 Software (La Jolla, Calif.). One-way ANOVA with Tukey's posthoc test for multiple comparisons was used to generate p-values, and data are presented as mean SEM (with α≤0.05).
Primary OPC cultures were used as a convenient cell-based assay to characterize the proliferation and/or differentiation effects of the new IndCl analogues and to select those most suitable for more extensive studies to be done in comparison with the parental ligand, IndCl. 48 hours after plating OPCs, one of seven IndCl analogues (FIG. 1A) was added to differentiating media at a concentration of 10 nM (De Angelis et al., 2005; Saijo et al., 2011). OPCs were allowed to differentiate for 3 days in the presence of IndCl or analogues, at which point they were fixed, immunostained for OPC/OL markers, and quantified. […] The total number of cells in culture was not altered by any treatment (FIGS. 1B and 1D).

Sequence of ERβ (Q92731 whole entry, species assumed): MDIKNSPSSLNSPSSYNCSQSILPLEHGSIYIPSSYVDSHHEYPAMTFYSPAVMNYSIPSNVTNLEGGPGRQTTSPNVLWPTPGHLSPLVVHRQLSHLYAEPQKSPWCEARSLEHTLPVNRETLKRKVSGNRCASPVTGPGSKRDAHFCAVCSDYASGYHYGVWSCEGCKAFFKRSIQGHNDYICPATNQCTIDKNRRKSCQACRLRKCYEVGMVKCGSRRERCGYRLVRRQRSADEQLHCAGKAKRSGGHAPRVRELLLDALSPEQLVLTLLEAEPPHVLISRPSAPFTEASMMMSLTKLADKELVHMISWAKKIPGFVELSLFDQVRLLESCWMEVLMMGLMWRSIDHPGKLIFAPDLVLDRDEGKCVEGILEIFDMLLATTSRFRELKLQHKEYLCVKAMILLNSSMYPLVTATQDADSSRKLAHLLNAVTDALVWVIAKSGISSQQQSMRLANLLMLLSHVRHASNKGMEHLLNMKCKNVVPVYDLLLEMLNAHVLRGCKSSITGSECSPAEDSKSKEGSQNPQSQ

RBA ERα [2] | β/α Ratio [3] | RBA ERβ [3] | Compound | number of MOG+ OLs [1] | %MBP+/DAPI [4] | number of total cells (DAPI) ([1]; FIG. 12C)
0.11% | 3.4 | 0.37% | Cc1cc(O)ccc1-n1nc2ccc(O)cc2c1F [IndF-o-Me, 3-fluoro-2-(4-hydroxy-2-methylphenyl)-2H-indazol-5-ol] | significant increase | * * * * * | –
1.22% | 9.8 | 11.99% | Cc1cc(O)ccc1-n1nc2ccc(O)cc2c1Br [IndBr-o-Me, 3-bromo-2-(4-hydroxy-2-methylphenyl)-2H-indazol-5-ol] | significant increase | – | –
0.37% | 3.3 | 1.22% | Oc1ccc(-n2nc3ccc(O)cc3c2F)c(Br)c1 [IndF-o-Br, 2-(2-bromo-4-hydroxyphenyl)-3-fluoro-2H-indazol-5-ol] | significant increase | – | significant increase
0.33% | 0.46 | 0.73% | Oc1ccc(-n2nc3ccc(O)c(Cl)c3c2Cl)c(Cl)c1 [IndCl-o-Cl-4-Cl, 2-(2-chloro-4-hydroxyphenyl)-3,4-dichloro-2H-indazol-5-ol] | – | * | –
